Structures are written as SMILES. The source made the active and inactive calls. No cut-off for these calls is given here.

In data set [1] the target is T1, Vitamin D3 receptor (Homo sapiens) (UniProt P11473).
T1 sequence (whole entry): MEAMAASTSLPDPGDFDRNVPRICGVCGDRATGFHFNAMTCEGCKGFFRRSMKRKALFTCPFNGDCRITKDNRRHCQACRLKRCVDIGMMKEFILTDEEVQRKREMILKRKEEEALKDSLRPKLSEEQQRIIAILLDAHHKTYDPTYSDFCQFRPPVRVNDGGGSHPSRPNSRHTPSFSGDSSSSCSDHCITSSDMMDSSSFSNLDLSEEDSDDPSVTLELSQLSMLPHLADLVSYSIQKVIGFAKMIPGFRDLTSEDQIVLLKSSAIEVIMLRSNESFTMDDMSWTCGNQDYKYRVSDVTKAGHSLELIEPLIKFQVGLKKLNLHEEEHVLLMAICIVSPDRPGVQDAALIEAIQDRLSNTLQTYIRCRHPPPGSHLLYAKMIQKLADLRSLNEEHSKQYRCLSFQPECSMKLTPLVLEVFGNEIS
As to the kind of experiment: Antagonist activity against calcitriol-activated VDR signalling in human HeLa cells assessed as inhibition of VDR signalling incubated with calcitriol for 1 hr followed by compound addition and measured after 24 hrs by luciferase reporter gene assay. It counts as cell-based. (In a reporter assay the amount or activity of a reporter protein is the signal.)

In another data set the test system is HeLa. The data set is described as follows: Cytotoxicity against human HeLa cells assessed as reduction in cell viability measured after 24 hrs by methylene blue staining based assay.
Data set [2] addresses Nuclear factor NF-kappa-B complex (Homo sapiens) (UniProt Q00653+P19838+Q04206). As to the kind of experiment: Inhibition of TNF-alpha induced NF-kappaB signalling in human HeLa cells incubated with TNF-alpha for 1 hr followed by compound addition and measured after 24 hrs by luciferase reporter gene assay. Format: cell-based.
Data set [3] deals with Signal transducer and activator of transcription 3 (Homo sapiens) (UniProt P40763). As to the kind of experiment: Inhibition of IFN-gamma stimulated STAT3 signalling in human HeLa cells incubated for 1 hr withIFN-gamma followed by compound addition and measured after 24 hrs by luciferase reporter gene assay. It counts as cell-based.
Sequence of Signal transducer and activator of transcription 3 (Homo sapiens) (P40763 whole entry): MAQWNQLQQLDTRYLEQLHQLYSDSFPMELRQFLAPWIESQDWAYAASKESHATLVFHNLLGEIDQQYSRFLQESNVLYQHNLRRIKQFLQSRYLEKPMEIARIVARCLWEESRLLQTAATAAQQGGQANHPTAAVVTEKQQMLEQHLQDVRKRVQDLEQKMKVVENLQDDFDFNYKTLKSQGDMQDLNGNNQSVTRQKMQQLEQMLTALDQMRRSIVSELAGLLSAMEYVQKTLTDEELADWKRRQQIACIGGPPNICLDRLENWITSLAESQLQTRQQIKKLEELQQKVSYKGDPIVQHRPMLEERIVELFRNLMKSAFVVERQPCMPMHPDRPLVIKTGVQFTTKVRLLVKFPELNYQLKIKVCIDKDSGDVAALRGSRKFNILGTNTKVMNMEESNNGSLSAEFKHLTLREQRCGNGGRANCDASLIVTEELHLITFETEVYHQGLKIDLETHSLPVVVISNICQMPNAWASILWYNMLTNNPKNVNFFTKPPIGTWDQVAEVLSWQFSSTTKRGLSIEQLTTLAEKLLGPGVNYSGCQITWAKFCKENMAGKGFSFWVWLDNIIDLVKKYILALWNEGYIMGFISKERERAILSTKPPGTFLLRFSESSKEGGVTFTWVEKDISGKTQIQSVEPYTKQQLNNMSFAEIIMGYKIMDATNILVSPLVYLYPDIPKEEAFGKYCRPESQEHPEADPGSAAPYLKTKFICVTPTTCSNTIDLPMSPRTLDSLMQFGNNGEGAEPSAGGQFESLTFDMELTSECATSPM
Data set [4] concerns the target T1, Vitamin D3 receptor (Homo sapiens). The data set is described as follows: Antagonist activity at VDR in human HeLa cells assessed as increase in ratio of LC3-II to LC-I at 10 uM in presence or absence of calcitriol measured after 4 hrs by western blot analysis. It counts as cell-based. To be noted: filed as antagonist.
Data set [5] has the same target. As to the kind of experiment: Antagonist activity at VDR in human HeLa cells assessed as reduction in CYP27B1 mRNA expression at 10 uM measured after 4 hrs by […]. It counts as cell-based. The conditions noted are these: filed as antagonist. For orientation: In western blotting, separated proteins are transferred to a membrane and probed.
The target is the same in data set [6]. The data set is described as follows: Antagonist activity at VDR in human HeLa cells assessed as decrease in mTOR phosphorylation at Ser2448 residue at 10 uM in presence or absence of calcitriol measured after 4 hrs by western blot analysis. Format: cell-based.
For data set [7] the target is unchanged. As to the kind of experiment: Antagonist activity at VDR in human HeLa cells assessed as reduction in CYP27B1 mRNA expression at 10 uM in presence of calcitriol measured after 4 hrs by […]. Format: cell-based.
Data set [8] shares this target. The data set is described as follows: Antagonist activity at VDR in human HeLa cells assessed as decrease in p62 expression at 10 uM in presence or absence of calcitriol measured after 4 hrs by western blot analysis. It counts as cell-based. To be noted: filed as antagonist.
For data set [9], the system named is N2a. The data set is described as follows: Induction of autophagy in MPP+-induced mouse N2a cells transfected with Atg7 shRNA assessed as increase in LC3-II expression at 10 uM measured after 6 hrs by western blot analysis. It counts as functional, cell-based.
Data set [10] has as its system N2a. As to the kind of experiment: Upregulation of SREBP2 cleavage in MPP+-induced mouse N2a cells assessed as increase in active form of phospho-SREBP2 level measured up to 6 hrs by western blot analysis. Format: functional.
The subject of data set [11] is N2a. As to the kind of experiment: Inhibition of lipid synthesis related gene expression in MPP+-induced mouse N2a cells assessed as reduction in Insig-1 gene expression measured after 6 hrs by qRT-PCR analysis. It counts as functional.
Data set [12] deals with N2a. As to the kind of experiment: Inhibition of lipid synthesis related gene expression in MPP+-induced mouse N2a cells assessed as reduction in Scap gene expression measured after 6 hrs by qRT-PCR analysis. Format: functional.
Data set [13] deals with N2a. As to the kind of experiment: Inhibition of lipid synthesis related gene expression in MPP+-induced mouse N2a cells assessed as reduction in Ldr gene expression measured after 6 hrs by qRT-PCR analysis. Format: functional. (Quantitative PCR measures a nucleic acid by following its amplification.)
For data set [14], the system named is N2a. The data set is described as follows: Inhibition of lipid synthesis related gene expression in MPP+-induced mouse N2a cells assessed as reduction in ACACA gene expression measured after 6 hrs by qRT-PCR analysis. Format: functional.
In data set [15] the test system is N2a. As to the kind of experiment: Effect on SNCA oligomerization in mouse N2a cells transfected with Syn-luc1 and Syn-luc2 plasmids assessed as reduction in SNCA self-oligomerization by measuring luciferase activity at 10 to 20 uM measured after 6 hrs by bioluminescent protein-fragment complementation assay. It counts as functional, cell-based. The conditions noted are these: dose 10-20 µM.

Data set [16] concerns N2a. The data set is described as follows: Upregulation of SREBP2 cleavage in MPP+-induced mouse N2a cells assessed as increase in active cleaved form of SREBP2 level measured up to 6 hrs by western blot analysis. Format: functional.
The test system of data set [17] is N2a. As to the kind of experiment: Inhibition of lipid synthesis related gene expression in MPP+-induced mouse N2a cells assessed as reduction in Fasn gene expression measured after 6 hrs by qRT-PCR analysis. It counts as functional.
The test system of data set [18] is SH-SY5Y. The data set is described as follows: Neuroprotective activity against SNCA-induced neurotoxicity in human SH-SY5Y cells transfected with adenovirus expressing […] SNCA assessed as reduction in […] SNCA expression at 10 uM measured after 6 hrs by western blot analysis. Format: functional, cell-based.
Data set [19] has as its system N2a. The data set is described as follows: Induction of autophagy in MPP+-induced mouse N2a cells assessed as increase in LC3-II expression at 10 uM measured after 6 hrs by western blot analysis. It counts as functional, cell-based.
For data set [20], the system named is N2a. The data set is described as follows: Induction of autophagy in MPP+-induced mouse N2a cells expressing myc-VDR plasmid assessed as LC3 lipidation at 10 uM measured after 6 hrs by western blot analysis. It counts as functional, cell-based.
The test system of data set [21] is SH-SY5Y. The data set is described as follows: Neuroprotective activity against A53T SNCA-induced cytotoxicity in human SH-SY5Y cells assessed as decrease in A53T SNCA induced LDH release at 10 uM by LDH assay. Format: functional, cell-based.
The test system of data set [22] is N2a. The data set is described as follows: Induction of autophagy in MPP+-induced mouse N2a cells infected with pAde-LC3-EGFP- mCherry assessed as formation of mCherry foci by measuring increased in red fluorescence at 10 uM measured after 4 hrs by Hoechst staining based confocal microscope analysis. Format: functional, cell-based.

Sequence of Nuclear factor NF-kappa-B complex (Homo sapiens) (P19838 whole entry, looked up): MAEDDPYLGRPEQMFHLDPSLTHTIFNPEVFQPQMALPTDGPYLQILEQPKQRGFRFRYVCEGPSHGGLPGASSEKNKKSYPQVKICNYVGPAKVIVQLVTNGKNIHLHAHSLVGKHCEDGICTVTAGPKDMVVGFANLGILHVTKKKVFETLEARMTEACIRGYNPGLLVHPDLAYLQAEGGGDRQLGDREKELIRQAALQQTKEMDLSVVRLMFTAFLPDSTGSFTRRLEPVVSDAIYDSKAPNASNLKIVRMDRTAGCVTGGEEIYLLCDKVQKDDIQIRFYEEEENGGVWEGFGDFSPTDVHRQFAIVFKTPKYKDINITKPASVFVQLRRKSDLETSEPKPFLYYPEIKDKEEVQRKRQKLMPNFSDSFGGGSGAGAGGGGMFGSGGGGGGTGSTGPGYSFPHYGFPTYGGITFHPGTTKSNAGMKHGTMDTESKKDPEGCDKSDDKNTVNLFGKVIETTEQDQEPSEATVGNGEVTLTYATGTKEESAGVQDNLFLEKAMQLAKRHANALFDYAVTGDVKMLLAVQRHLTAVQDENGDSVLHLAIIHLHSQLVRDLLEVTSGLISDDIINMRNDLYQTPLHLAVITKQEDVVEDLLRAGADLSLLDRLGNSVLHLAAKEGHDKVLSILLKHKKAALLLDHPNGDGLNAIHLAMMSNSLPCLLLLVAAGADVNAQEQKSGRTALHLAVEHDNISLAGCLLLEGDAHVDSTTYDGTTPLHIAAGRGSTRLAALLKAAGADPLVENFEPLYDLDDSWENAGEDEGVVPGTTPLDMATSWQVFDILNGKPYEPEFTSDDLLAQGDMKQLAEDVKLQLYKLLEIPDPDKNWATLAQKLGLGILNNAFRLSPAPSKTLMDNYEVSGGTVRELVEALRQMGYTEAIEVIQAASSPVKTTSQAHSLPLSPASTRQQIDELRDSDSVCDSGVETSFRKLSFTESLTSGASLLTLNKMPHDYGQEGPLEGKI
Sequence of Nuclear factor NF-kappa-B complex (Homo sapiens) (Q00653 whole entry, looked up): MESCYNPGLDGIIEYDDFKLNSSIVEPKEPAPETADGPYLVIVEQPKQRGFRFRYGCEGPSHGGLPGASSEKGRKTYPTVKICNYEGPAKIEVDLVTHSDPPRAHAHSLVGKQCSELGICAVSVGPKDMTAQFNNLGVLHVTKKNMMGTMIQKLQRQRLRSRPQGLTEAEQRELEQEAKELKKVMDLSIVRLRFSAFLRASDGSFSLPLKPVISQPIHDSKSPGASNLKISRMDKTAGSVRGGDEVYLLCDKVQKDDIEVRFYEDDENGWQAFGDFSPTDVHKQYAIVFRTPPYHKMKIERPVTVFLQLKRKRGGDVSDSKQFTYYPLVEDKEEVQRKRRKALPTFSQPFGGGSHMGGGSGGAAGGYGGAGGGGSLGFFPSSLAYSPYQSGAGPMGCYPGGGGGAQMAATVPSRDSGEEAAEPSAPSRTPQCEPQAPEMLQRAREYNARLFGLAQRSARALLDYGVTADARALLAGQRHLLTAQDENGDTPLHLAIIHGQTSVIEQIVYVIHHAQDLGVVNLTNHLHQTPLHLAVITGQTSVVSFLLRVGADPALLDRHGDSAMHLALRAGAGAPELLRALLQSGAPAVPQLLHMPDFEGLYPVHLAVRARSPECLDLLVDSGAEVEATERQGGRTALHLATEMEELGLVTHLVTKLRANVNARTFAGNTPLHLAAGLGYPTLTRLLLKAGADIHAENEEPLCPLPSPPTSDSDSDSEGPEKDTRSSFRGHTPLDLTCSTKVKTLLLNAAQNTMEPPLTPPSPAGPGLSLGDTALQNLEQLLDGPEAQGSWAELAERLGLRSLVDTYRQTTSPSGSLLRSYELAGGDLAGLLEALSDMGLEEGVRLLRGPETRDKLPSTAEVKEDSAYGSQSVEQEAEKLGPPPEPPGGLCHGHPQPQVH
Sequence of Nuclear factor NF-kappa-B complex (Homo sapiens) (Q04206 whole entry, looked up): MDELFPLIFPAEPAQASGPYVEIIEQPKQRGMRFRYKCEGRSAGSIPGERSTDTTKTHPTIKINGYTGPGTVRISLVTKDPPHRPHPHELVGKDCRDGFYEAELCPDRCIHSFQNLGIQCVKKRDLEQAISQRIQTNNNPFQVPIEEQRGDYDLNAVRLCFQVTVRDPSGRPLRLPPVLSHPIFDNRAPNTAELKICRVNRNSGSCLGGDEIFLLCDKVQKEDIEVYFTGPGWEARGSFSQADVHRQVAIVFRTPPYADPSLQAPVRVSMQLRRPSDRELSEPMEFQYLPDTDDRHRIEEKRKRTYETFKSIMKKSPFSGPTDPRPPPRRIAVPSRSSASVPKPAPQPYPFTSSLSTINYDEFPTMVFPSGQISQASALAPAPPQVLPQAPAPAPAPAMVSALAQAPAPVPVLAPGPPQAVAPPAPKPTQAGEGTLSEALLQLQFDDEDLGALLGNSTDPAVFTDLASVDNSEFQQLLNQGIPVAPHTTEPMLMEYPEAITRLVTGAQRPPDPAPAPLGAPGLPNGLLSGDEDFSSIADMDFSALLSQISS

As to `C=C1CC[C@@H]2[C@]3(C)COC(C)(C)O[C@@H]3CC[C@@]2(C)[C@@H]1C/C=C1/C(O)OC[C@H]1O[Si](C)(C)C(C)(C)C` (stereo partly drawn), the inhibition result in data set [1], in data set [2] and in data set [3] was “inactive” each time. In the data set with HeLa, the Activity entry is “Non-Toxic”.
In the case of `C=C1CC[C@@H]2[C@]3(C)COC(C)(C)O[C@@H]3CC[C@@]2(C)[C@@H]1C/C=C1/C(O)OC[C@H]1O[Si](CC)(CC)CC` (stereo partly drawn), in data set [4], the result was Active. In addition, the inhibition result in data set [1] (filed as antagonist), in data set [5] and in [6] (filed as antagonist) was “Active” each time. Moreover, in the data set with HeLa, the Activity entry is “Non-Toxic”. The inhibition result in data set [3] was “inactive”.
As to `C=C1CC[C@@H]2[C@](C)(CO)[C@H](O)CC[C@@]2(C)[C@@H]1C/C=C(/COC(C)=O)[C@@H](COC(C)=O)O[Si](C)(C)C(C)(C)C`, the result in data set [4] was Active. For the same molecule, the inhibition entry in data set [1] (filed as antagonist) and in data set [6] (filed as antagonist) was “Active” in each case. For the same molecule, in the data set with HeLa, the Activity result was “Non-Toxic”. Also, the inhibition result in data set [3] is “inactive”. The outcome in data set [7] was inactive.
For the molecule `C=C1CC[C@@H]2[C@](C)(CO)[C@H](O)CC[C@@]2(C)[C@@H]1C/C=C1/C(O)OC[C@H]1O[Si](CC)(CC)CC` (stereo partly drawn), the inhibition entry in data set [1] and in data set [3] was “inactive” in each case. Besides, the Activity result in the data set with HeLa was “Non-Toxic”.
Take `C=C1CC[C@@H]2[C@]3(C)COC(C)(C)O[C@@H]3CC[C@@]2(C)[C@@H]1C/C=C(/C=O)[C@@H](COC(C)=O)O[Si](C)(C)C(C)(C)C`: the inhibition entry in [1] (filed as antagonist), in data set [5] and in [6] (filed as antagonist) was “Active” throughout. Moreover, the Activity result in the data set with HeLa is given as “Non-Toxic”. The inhibition result in data set [3] is “inactive”.
Regarding `C=C1CC[C@@H]2[C@]3(C)COC(C)(C)O[C@@H]3CC[C@@]2(C)[C@@H]1C/C=C(/COC(C)=O)[C@@H](COC(C)=O)O[Si](C)(C)C(C)(C)C`, the inhibition entry in data set [1] and in data set [3] was “inactive” each time. Besides, the Activity entry in the data set on HeLa is “Non-Toxic”.
Regarding `C=C1CC[C@@H]2[C@](C)(CO)[C@H](O)CC[C@@]2(C)[C@@H]1C/C=C1/C(O)OC[C@H]1O[Si](C)(C)C(C)(C)C` (stereo partly drawn), the inhibition result in data set [1] (filed as antagonist) was “Active”. The Activity entry in the data set on HeLa is “Non-Toxic”. Also, the inhibition entry in data set [3] is “inactive”.
Regarding `C=C1CC[C@@H]2[C@]3(C)COC(C)(C)O[C@@H]3CC[C@@]2(C)[C@@H]1C/C=C(/CO)[C@@H](CO)O[Si](C)(C)C(C)(C)C`, the inhibition result in data set [1], in data set [2] and in data set [3] was “inactive” in each case. The Activity entry with HeLa was “Non-Toxic”.
Take `C=C1CC[C@@H]2[C@](C)(COC(C)=O)[C@H](OC(C)=O)CC[C@@]2(C)[C@@H]1C/C=C(/COC(C)=O)[C@@H](COC(C)=O)O[Si](C)(C)C(C)(C)C`: the inhibition entry in [1] and in [3] was “inactive” throughout. For the same molecule, the Activity entry in the data set with HeLa is recorded as “Non-Toxic”.
Consider `C=C1CC[C@@H]2[C@]3(C)COC(C)(C)O[C@@H]3CC[C@@]2(C)[C@@H]1C/C=C1/C(=O)OC[C@H]1O[Si](C)(C)C(C)(C)C`, for which the inhibition result in data set [1] and in [3] was “inactive” in each case. Moreover, the Activity result in the data set with HeLa is “Non-Toxic”.
Take `C=C1CC[C@@H]2[C@]3(C)COC(C)(C)O[C@@H]3CC[C@@]2(C)[C@@H]1C/C=C1/C(=O)OC[C@H]1O[Si](CC)(CC)CC`: the inhibition result in data set [1] and in data set [3] was “inactive” throughout. Also, the Activity result in the data set with HeLa is “Non-Toxic”. Also, the outcome in [8] was Active.
As to `C=C1CC[C@@H]2[C@]3(C)COC(C)(C)O[C@@H]3CC[C@@]2(C)[C@@H]1C/C=C(/CO)[C@@H](CO)O[Si](CC)(CC)CC`, the inhibition result in [1] (filed as antagonist) and in data set [2] was “Active” each time. The Activity result with HeLa was “Non-Toxic”. The inhibition entry in data set [3] was “inactive”.
As to `C=C1CC[C@@H]2[C@](C)(COC(C)=O)[C@H](O)CC[C@@]2(C)[C@@H]1C/C=C(/COC(C)=O)[C@@H](COC(C)=O)O[Si](C)(C)C(C)(C)C`, the result (in the data set on N2a [9]; in [4]; in the data set on N2a [10]; with N2a [15]; in the data set with N2a [16]; in the data set with SH-SY5Y [18]) was Active. Further, the outcome in the data set with N2a [19], with SH-SY5Y [21] and in the data set with N2a [22] was Active. The outcome in the data set with N2a [11], with N2a [12], with N2a [13], in the data set with N2a [14], with N2a [17] and in the data set with N2a [20] was inactive. Besides, the inhibition entry in data set [1] (filed as antagonist) and in data set [5] was “Active” each time. Also, the Activity entry in the data set on HeLa was “Non-Toxic”. For the same molecule, the inhibition result in data set [6] and in data set [3] was “inactive” each time.

Source of the values: ChEMBL document CHEMBL5053541, “Andrographolide derivative as antagonist of vitamin D receptor to induce lipidation of microtubule associate protein 1 light chain 3 (LC3)” (Bioorg Med Chem, 2021).
